From patent US11840527B2, “Non-fused thiophene derivatives and their uses” (ENYO PHARMA, priority 2018, dated 2023) come the findings set out here.

The test system of assay [1] is H1N1 (influenza A/New Caledonia/20/99). The experiment in a line: Antiviral effect on A549 cells infected with H1N1. In kind it is cell-based, H1N1 A/New Caledonia/20/99 virus. Particulars: Influenza A virus, MOI 0.1, 48 h post-infection, MUNANA neuraminidase readout. In short, it runs like this:
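A549 cells dosed with test compounds over a concentration range and infected at once with clinical isolate H1N1 A/New Caledonia/20/99 (MOI 0.1) in DMEM with […] TPCK trypsin, 37 °C. At 48 h, supernatant neuraminidase activity measured with MUNANA substrate (1 h, 37 °C); 4-MU fluorescence at ex 365/em 450 nm.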

The subject of a further assay is NFκB. The assay is described as follows: NFκB reporter assay, TNFα stimulation of A549 reporter cells. In kind it is cell-based. The following applies: Homo sapiens; A549 NFκB-NanoLuciferase reporter cells, 4 ng/ml TNFα, 6 hours. The source says: Compounds of the present invention have been tested for their capacity to inhibit NFκB.
The NFκB reporter construct was made by cloning 5 NFκB responsive elements upstream of a NanoLuciferase reporter gene flanked by AAVS1 genomic sequences.
NFκB Responsive element fused with NanoLuciferase and SV40 late Poly(A) signal was amplified from pNL3.2-NFκB-Nluc (Promega) using NFκB-NLUC-F and NFκB-NLUC-R primers and inserted by Infusion (TaKaRa) in AAVS1 SA-2A-puro-pA donor plasmid (Hockemeyer et al, Nat Biotechnol. 2009, 27, 851-7) digested by Sall. pCRISPR AAVS1-T2 expressing a guide RNA (gRNA) to target human AAVS1 (T2 target sequence) was constructed by inserting AAVS1-T2A hybridized primers in pLentiCRISPR v2-blast (Sanjana et al, Nat Methods. 2014, 11, 783-4) digested by Bsmb1.
A549 cells were transfected by the plasmids and puromycine selected for 5 days (1 μg mL-1). Then clones were obtained by limiting dilution and selected to maximize TNFα dependent NFkB-NanoLuciferase induction.
The reporter cells were seeded on a 96-well plate for overnight with DMEM including 10% FBS. Test compounds were added at varying concentrations. The cells then were treated with 4 ng/ml TNFα (Peprotech, ref E251) in DMEM+10% FBS. NanoGlo luciferase assay (Promega) was carried out 6 hours later. Luminescence was measured using a Spark 20M spectrofluorimeter (Tecan). Values were normalized to the luminescence measured in untreated cells.

For assay [2], the target named is T1, CISD3 Gene Product (Miner2) (Homo sapiens, UniProt P0C7P0).
T1 sequence (P0C7P0 15-127): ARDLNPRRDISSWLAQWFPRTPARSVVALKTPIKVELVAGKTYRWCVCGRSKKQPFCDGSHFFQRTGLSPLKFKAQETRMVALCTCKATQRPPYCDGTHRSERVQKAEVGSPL
The assay is described as follows: Stability of Fe-S cluster binding of purified NEET protein (absorbance 458 nm). In kind it is biochemical. Particulars: for Residual cluster bound at end of experiment (Percentage Absorbance 458 nm at time zero): CISD3 gene product, at 180 minutes, vehicle control (DMSO) 11%; for Residual cluster bound at end of experiment (Percentage Absorbance 458 nm at time zero) / Time (in minutes) to achieve 50% loss of bound cluster (Absorbance 458 nm): 60 μM compound; for Stabiliser of Fe—S cluster binding (time to 50% loss increased by more than 25% vs control) / Time (in minutes) to achieve 50% loss of bound cluster (Absorbance 458 nm): Miner2; for Stabiliser of Fe—S cluster binding (time to 50% loss increased by more than 25% vs control): at the concentrations tested; for Time (in minutes) to achieve 50% loss of bound cluster (Absorbance 458 nm): pH 6, 37° C., 20 μM protein, run time 180 minutes, vehicle control 60. As to the method:
(§1) The modulator effect on the NEET proteins encoded by human CISD1, CISD2, and CISD3 genes by the compounds of the invention has been tested and is reported below. Particularly, the biochemical function of the NEET proteins is measured by the stability of Fe—S cluster binding of the purified NEET proteins.
(§2) The Fe—S cluster binding capacity of NEET proteins is known to be coordinated by four amino-acids in a stretch of 16 (three Cysteine and one Histidine). As the lability of the Fe—S cluster of NEET proteins is sensitive to the environment, cluster stability measurements are one of the measures of interactions of NEET proteins with small molecules and compounds. NEET protein/2Fe-2S cluster stability can be assessed by monitoring the decay in absorbance of its characteristic 458-nm peak (characteristic of the oxidized 2Fe-2S cluster) over time. Each NEET protein (mitoNEET, NAF-1 and Miner 2) was tested for its Fe—S binding in the absence or presence of a compound according to the invention (see table 3 below). The rate of cluster release (time in minutes to achieve 50% loss of bound Fe—S cluster) was compared for each NEET protein in the presence of one of the compounds of the invention (in a 1:3 protein:compound molar ratio) relative to each protein alone.
(§3) At pH 6, all the three NEET proteins (mitoNEET, NAF-1 and Miner 2) have a characteristic rate of loss of the bound Fe—S cluster that can be measured by the decrease of absorbance at wavelength 458 nm over time, using a spectrophotometer. Thus, Bis-Tris buffer (100 mM Bis-Tris pH6, 100 mM Nacl) was used at pH 6 to dilute either DMSO (Blank sample: Bis-Tris Buffer pH 6, 66 μM DMSO), DMSO and one of the three NEET proteins (Control sample: Bis-Tris Buffer pH 6, 66 μM DMSO, 20 μM purified NEET protein) or DMSO, one of the three NEET proteins and a compound of the invention (Test sample: Bis-Tris Buffer pH 6, 66 μM DMSO, 20 μM purified NEET protein, 60 μM compound of the invention).
(§4) A reaction mix containing DMSO diluted in the Bis-Tris Buffer with or without a compound of the invention was prepared. The purified NEET protein was the last component added to the reaction mix which was then aliquoted into 4 replicates in 96 wells plates. The absorbance at wavelength 458 nm was taken at 5 minutes intervals at 37° C. with a spectrofluorimeter. The assay run time for CISD2 gene product (NAF-1) was 500 minutes and 180 minutes for both the CISD 1 gene product (mitoNEET) and the CISD3 gene product (Miner 2).
(§5) In addition to time monitoring, residual bound Fe—S cluster to NEET protein was measured at the final point of the spectrometry assay for each Test sample and compared to the Control sample data (in parenthesis table 3). This residual binding is measured by the differential percentage between the absorbance 458 nm at time zero and the absorbance 458 nm at the end of the experiment (i.e. respectively 500 or 180 minutes as described hereabove), showing the percentage of NEET protein still able to bind Fe—S cluster.
(§6) Analysis of the absorbance enables the time for which 50% loss of bound Fe—S cluster is reached (i.e. a 50% absorbance decrease at 458 nm) for each Test sample and each Control sample (in parenthesis table 3) to be determined. The data are then compared to determine whether the compound of the invention stabilizes or destabilizes the NEET protein/Fe—S cluster binding.
(§7) Stabilisers of Fe—S cluster binding by the NEET proteins slow the release of bound Fe—S (i.e. increase the time needed to reach 50% Fe—S cluster bound loss by more than 25% for the Test sample compared to the Control sample). As illustrated by table 3, at the concentrations tested, stabilisers of CISD1 Gene Product (mitoNEET) are the compounds #9, #18, #26, #2, #1, and #42. Stabilisers of CISD2 Gene Product (NAF-1) are the compounds #2, #1, and #40. Stabilisers of CISD3 Gene Product (Miner2) are the compounds #9, #18, #26, #2, #1, and #42.

The target of assay [3] is T2, CISD2 Gene Product (NAF-1) (Homo sapiens, UniProt Q8N5K1).
T2 sequence (Q8N5K1 57-135 limits assumed): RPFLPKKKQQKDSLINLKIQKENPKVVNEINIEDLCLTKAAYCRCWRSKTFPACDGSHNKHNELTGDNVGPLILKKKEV
Described as above. In kind it is biochemical. The following applies: 60 μM compound; for Residual cluster bound at end of experiment (Percentage Absorbance 458 nm at time zero): at 500 minutes, vehicle control 3%; for Time (in minutes) to achieve 50% loss of bound cluster (Absorbance 458 nm): pH 6, 37° C., 20 μM protein, run time 500 minutes, vehicle control 310. As to the method: as §1, §2, §3, §4, §5, §6, §7

Assay [4] deals with T3, CISD1 Gene Product (mitoNEET) (Homo sapiens, UniProt Q9NZ45).
T3 sequence (Q9NZ45 33-108 limits assumed): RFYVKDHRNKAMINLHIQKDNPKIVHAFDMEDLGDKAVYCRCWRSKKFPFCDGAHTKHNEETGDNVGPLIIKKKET
The description is as above. In kind it is biochemical. Particulars: for Residual cluster bound at end of experiment (Percentage Absorbance 458 nm at time zero): at 180 minutes, vehicle control 16%; for Residual cluster bound at end of experiment (Percentage Absorbance 458 nm at time zero) / Time (in minutes) to achieve 50% loss of bound cluster (Absorbance 458 nm): 60 μM compound; for Stabiliser of Fe—S cluster binding (time to 50% loss increased by more than 25% vs control): at the concentrations tested; for Time (in minutes) to achieve 50% loss of bound cluster (Absorbance 458 nm): pH 6, 37° C., 20 μM protein, run time 180 minutes, vehicle control 80. As to the method: as §1, §2, §3, §4, §5, §6, §7

In assay [1], `O=C(Nc1scc(C2CC3CCC2C3)c1C(=O)O)c1ccccc1` (centres unmarked) [Compound #9, 2-Benzamido-4-norbornan-2-yl-thiophene-3-carboxylic acid] registered an IC50 of 210 nM. This compound came in with an EC50 with NFκB of 1100 nM. Besides, the “Residual cluster bound at end of experiment (Percentage Absorbance 458 nm at time zero)” value in assay [2] is 57% (11%); in assay [3] it was 17% (3%); in assay [4] it was 20% (16%). Moreover, the “Stabiliser of Fe—S cluster binding (time to 50% loss increased by more than 25% vs control)” value in assay [2] is given as “Stabilisers”; in assay [4], “stabilisers”. The figures for the “Time (in minutes) to achieve 50% loss of bound cluster (Absorbance 458 nm)” value in assay [2], in assay [3] and in assay [4] were “during 180 minutes”, 370 (310) minutes and 100 (80) minutes, respectively.

For `O=C(Nc1sc(Cl)c(C2CCCC2)c1C(=O)O)c1ccccc1` [Compound #18, 2-Benzamido-5-chloro-4-cyclopentyl-thiophene-3-carboxylic acid], in assay [1], the IC50 amounted to 64.8 nM. In the assay on NFκB, this compound yielded a concentration for a half-maximal effect (EC50) of 1100 nM. Besides, in assay [2], the “Residual cluster bound at end of experiment (Percentage Absorbance 458 nm at time zero)” value was 69% (11%), the “Stabiliser of Fe—S cluster binding (time to 50% loss increased by more than 25% vs control)” value is “Stabilisers” and the “Time (in minutes) to achieve 50% loss of bound cluster (Absorbance 458 nm)” value is recorded as “during 180 minutes”. In assay [3], the “Residual cluster bound at end of experiment (Percentage Absorbance 458 nm at time zero)” value is reported as 38% (3%) and the “Time (in minutes) to achieve 50% loss of bound cluster (Absorbance 458 nm)” value is 240 (310) minutes. For the same compound, in assay [4], the “Residual cluster bound at end of experiment (Percentage Absorbance 458 nm at time zero)” value is given as 52% (16%), the “Stabiliser of Fe—S cluster binding (time to 50% loss increased by more than 25% vs control)” value is given as “stabilisers” and the “Time (in minutes) to achieve 50% loss of bound cluster (Absorbance 458 nm)” value is reported as “during 180 minutes”.
